These are literature values, as cited in US7220434B2, “Dual-release compositions of a cyclooxygenase-2 inhibitor” (Pharmacia Corporation (of Pfizer, Inc.), priority 2000, dated 2007).

For series [1] the following is noted: conventionally formulated for oral delivery.

With `Cc1ccc(-c2cc(C(F)(F)F)nn2-c2ccc(S(N)(=O)=O)cc2)cc1` [celecoxib, 4-[5-(4-methylphenyl)-3-(trifluoromethyl)-1H-pyrazol-1-yl]benzenesulfonamide], the solubility in water result is “low solubility in water”. Also, under “aqueous media”, the “solubility in aqueous media” value is listed as “unusually insoluble”.
On to `Cc1onc(-c2ccccc2)c1-c1ccc(S(N)(=O)=O)cc1` [valdecoxib, 4-[5-methyl-3-phenylisoxazol-4-yl]benzenesulfonamide], for which the solubility in water result was “low solubility in water”.
In the case of `CS(=O)(=O)c1ccc(C2=C(c3ccccc3)C(=O)OC2)cc1` [rofecoxib, 3-phenyl-4-[4-(methylsulfonyl)phenyl]-5H-furan-2-one], the solubility in water result is “low solubility in water”. Moreover, the half-life result in series [1] is given as “sufficient to provide therapeutic benefit over a 24-hour period”.
For `COc1ccc(-c2cc(C(F)F)nn2-c2ccc(S(N)(=O)=O)cc2)cc1F` [deracoxib], the solubility in water entry is “low solubility in water”.
